Assay results published in patent US20150273013A1, “AGONISTS OF GUANYLATE CYCLASE USEFUL FOR THE TREATMENT OF GASTROINTESTINAL DISORDERS, INFLAMMATION, CANCER AND OTHER DISORDERS” (Synergy Pharmaceuticals, Inc., priority 2014, published 2015).
Bridges are numbered along the chain shown (N, C = ends). Where no end group is shown, it is not given here. [ ]: non-standard residue; d: D form.

How the values were obtained:
[1] = test system: inflammatory (TNBS) induced hypersensitivity to colorectal distension (CRD); experiment: TNBS (inflammatory) induced hypersensitivity to colorectal distension, oral treatment; type: in vivo, rat; details: for colonic wall elasticity / number of abdominal contractions in response to CRD: TNBS model, oral doses of 0.01 and 0.05 mg/kg; for number of abdominal contractions in response to CRD: intracolonic distension pressures between 15 and 60 mm Hg; for colonic volume adaptation to increasing pressure: after TNBS instillation, pressures between 15 and 60 mm Hg
Description: (§1) Oral Treatment with Plecanatide and Sp-333, Agonists of Guanylate Cyclase-C, Attenuates Visceral Hypersensitivity in Rat Models
(§2) Oral treatment with plecanatide (Asn Asp Glu Cys Glu Leu Cys Val Asn Val Ala Cys Thr Gly Cys Leu) or SP-333 (dAsn Asp Glu Cys Glu Leu Cys Val Asn Val Ala Cys Thr Gly Cys dLeu), homologues of UG, was evaluated in rodent models of inflammatory (TNBS) and non-inflammatory partial restraint stress induced hypersensitivity to colorectal distension (CRD).

colitis in murine models = details: oral treatment, Shailubhai et al. 2009; cited from earlier work
[2] = test system: non-inflammatory partial restraint stress induced hypersensitivity to colorectal distension (CRD); experiment: Partial restraint stress induced hypersensitivity to colorectal distension, oral treatment; type: in vivo, rat; details: partial restraint stress model, oral doses of 0.01 and 0.05 mg/kg; for number of abdominal contractions in response to CRD: intracolonic distension pressures between 15 and 60 mm Hg
Description: as §1, §2

Substance | colonic wall elasticity [1] | number of abdominal contractions in response to CRD [1] | colonic volume adaptation to increasing pressure [1] | effect on colitis (colitis in murine models) | colonic wall elasticity [2] | number of abdominal contractions in response to CRD [2]
Asn Asp Glu Cys Glu Leu Cys Val Asn Val Ala Cys Thr Gly Cys Leu (NDECELCVNVACTGCL; disulfide 4-12, 7-15) [plecanatide, GC-C agonist, homologue of uroguanylin, (C4:C12, C7:C15) bicycle peptide] | without significantly altering | effectively reduced | reduced | ameliorate colitis | without significantly altering | effectively reduced
dAsn Asp Glu Cys Glu Leu Cys Val Asn Val Ala Cys Thr Gly Cys dLeu ([dN]DECELCVNVACTGC[dL]; disulfide 4-12, 7-15) [SP-333, GC-C agonist, homologue of uroguanylin, (C4:C12, C7:C15) bicycle peptide] | without significantly altering | effectively reduced | reduced | ameliorate colitis | without significantly altering | effectively reduced
